Measured values taken from patent US20190037899A1, “Intramolecular Trans-Sialidase” (THE INSTITUTE OF FOOD RESEARCH, priority 2016, published 2019).

How the values were obtained:
[1] = tested on: R. gnavus strains (ATCC 29149 and ATCC 35913); test: Growth of R. gnavus strains on 2,7-anhydro-Neu5Ac as sole carbon source; format: cell-based, Ruminococcus gnavus; conditions: anaerobic
Experimental: The ability of pathogens to utilise 2,7-anhydroSA as a potential nutrient by growing the cells in presence of 2,7-anhydroSA (or sialic acid as a control) as sole carbon source under anaerobic conditions is tested. […] The ability of these pathogens to utilise 2,7-anhydro-Neu5Ac is tested by growing the cells in vitro with 2,7-anhydro-Neu5Ac synthesised using the enzymatic synthesis as described above, as sole carbon source. Growth is determined spectrophotometrically and analysed using an appropriately developed DMFit program to compare the effect of the carbon source on growth rates. The impact of ITS on the ability of pathogens to grow on mucins purified from human “goblet-like” cells is tested in co-culture experiments with R. gnavus strains (ATCC 29149 expressing ITS and E1 as a negative control) in anaerobic continuous reactors.

sialic acid aldolase = target: T1, sialic acid aldolase (Escherichia coli, UniProt P0A6L4); test: Degradation of 2,7-anhydro-Neu5Ac by sialic acid aldolase; format: biochemical
T1 construct: purchased Carbosynth Limited (Compton, UK)
T1 sequence (P0A6L4 whole entry): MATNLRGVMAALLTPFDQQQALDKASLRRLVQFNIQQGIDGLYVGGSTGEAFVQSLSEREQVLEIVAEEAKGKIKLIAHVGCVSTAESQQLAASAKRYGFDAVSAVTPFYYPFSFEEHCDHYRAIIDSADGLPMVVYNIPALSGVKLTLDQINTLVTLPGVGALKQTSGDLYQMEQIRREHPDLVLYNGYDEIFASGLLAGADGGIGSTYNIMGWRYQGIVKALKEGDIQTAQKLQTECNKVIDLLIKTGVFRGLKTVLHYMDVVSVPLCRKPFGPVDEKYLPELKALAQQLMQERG
Experimental: A dialysis membrane (7K MWCO) containing fetuin (0.3 mM) was incubated in 100 mM ammonium formate buffer pH 6.5 for 2 h at 37° C. under gentle shaking (115 rpm). Following the addition of 50 nM RgNanH (in Tris buffer 40 mM pH 7.9) into the dialysis membrane, the reaction mixture was further incubated in 100 mM ammonium formate buffer (pH 6.5) at 115 rpm, 37° C. for 24 h. Sialic acid aldolase (17.4 units in 100 mM ammonium formate) was added to the membrane enclosed reaction mixture. Following a further 20 h incubation at 115 rpm and 37° C., 100 mL of buffer was recovered, diluted with 100 mL of ultrapure water and freeze dried. The membrane enclosed reaction mixture was dialysed with 100 mL ultrapure water for 2 h and again overnight under 115 rpm shaking and at 37° C. The water was recovered, mixed with the dried synthesis buffer and freeze dried. After complete dryness, the powder was dissolved in 100 mL ultrapure water and freeze dried again 3 times to remove volatile salts.
Considering the difficulty and the low efficiency of the separation of free Neu5Ac from 2,7-anhydro-Neu5Ac, a commercially available sialic acid aldolase from E. coli was introduced into the dialysis membrane with RgNanH and fetuin. […]

[2] = Spontaneous conversion of 2,7-anhydro-Neu5Ac to Neu5Ac (1H NMR, HPAEC-PAD); format: physicochemical; conditions: up to 24 h at 37° C.

CC(=O)N[C@H]1[C@H]2O[C@@](C(=O)O)(C[C@@H]1O)O[C@@H]2[C@H](O)CO [2,7-anhydro-Neu5Ac, 2,7-anhydro-α-N-acetylneuraminic acid]
Growth of R. gnavus strains on the compound as sole carbon source [1]: able to grow | Degradation by sialic acid aldolase (sialic acid aldolase): resistant to degradation | Spontaneous conversion of 2,7-anhydro-Neu5Ac to Neu5Ac [2]: no spontaneous conversion
